Measured values taken from patent publication US20050245600A1, “Novel antimalarial agent” (Osaka Bioscience Institute, priority 2002, published 2005).
≈ marks a conversion by molar mass, not a printed value. Read-outs that look alike come from different tables or passages of the source.

What was measured:
human cancer cell KB3-1 = assay: KB3-1 cell growth inhibition (MTT) to examine toxicity; assay type: cell-based; details: for IC50: Table 3, read-out: KB3-1 (IC50, μg/mL); for Selective toxicity: IC50 (KB3-1)/IC50 (P. falciparum)
Method: To 100 μL (2×10^4/ml) of floating liquid of KB3-1 cells, 100 μL of test compound containing a liquid which was prepared by dissolving a test compound in DMSO and diluted to an appropriate concentration (final concentration of DMSO: 1%) was added. The mixture was incubated under 5% CO2 at 37° C. After 72 hours incubation, 25 μL of MTT reagent was added and incubation was effected for 3 hours before only medium was aspiratedly removed. To the medium 200 μL of DMSO was added, the resulting MTT folmazan was extracted and the amount of the dye was quantitatively measured by a calorimetric method (540 nm). The number of survival cell was counted from the amount of formed dye, and percent growth inhibition was determined to assess the toxic activity. Mitomycin C was used as a positive control.

[1] = system: FCR3 strain (resistant to cycloguanyl) of Plasmodium falciparum; assay: Plasmodium falciparum growth inhibition (Giemsa smear count, 48 hours); assay type: cell-based; details: for IC50: Table 3, read-out: P. falciparum (IC50, μg/mL)
Method: FCR3 strain (resistant to cycloguanyl) of Plasmodium falciparum isolated in Gambia was used in the experiment to assess anti-malarial activity. Plasmodium falciparum synchronized to a ring phase by sorbitol treatment was injected in 50 μL 96 well plate. The hematocrit value of the culture liquid is 2% and the infection ratio was 0.55%. A substance to be tested was dissolved in DMSO and diluted with medium to an appropriate concentration before 50 μL of a test compound solution was added to the above 96 well plate to the total volume of 100 μL. The final concentration of DMSO added was 1%. Subsequently, after incubation was effected at 37° C. for 48 hours, a sumea film prepared on a slide glass was stained with Giemsa solution. The number of infected erythrocyte among 1000 erythrocytes was counted under an optical microscope. Percent inhibition of malaria parasite growth was calculated for percent infection obtained under the presence of DMSO only and that under the presence of the compound to be tested. Quinine was used as a positive control.

[2] = system: Plasmodium berghei (NK65 line); assay: In vivo antimalarial activity, four days inhibition effect in infected mouse; details: ICR mouse; for Inhibition (%) / Averaged parasite blood (%): fourth day; for Averaged parasite blood (%): average ± SD of 5 mice
Method: Four weeks old male mouse was bred at 25° C. under the condition of 12 hours light and 12 hours dark, and used in the assay.
Blood was corrected with a syringe from the heart of a donor mouse with 15 % of parasitaemia. To this blood, trisodium citrate aqueous solution was added in one seventh by volume to prevent coagulation of blood. The resulting solution was diluted with 0.9% aqueous sodium chloride solution so that the final concentration of infected blood cells is 1×10^7 per 0.2 ml. […]
To mouse (one group: 5), 0.2 ml of the infected erythrocytes was administered through tail vein. After 2 hours, the CMC solution (0.2 ml) of the respective concentration prepared above was orally administered. Starting with this time as 0 day, the solution was administered every day till a third day and infection ratio was examined on a fourth day. The infection ratio was determined by collecting blood from mouse tail, preparing smear, and counting infected erythrocytes using a microscope. The infection ratio of control mouse (5 infected mice administered only by the 0.5% CMC solution) was about 28% on the fourth day.
Percent growth inhibition of parasites by test compound was calculated from the following formula: Percent growth inhibition of parasites=(1−averaged infection ratio of mice treated with test compound/averaged infection ratio of control mice)×100
Life prolonging effect by test compound (T/C) was calculated from the following equation. Life Prolonging Effect (T/C)=averaged number of subsistence days of mouse treated by test compound/averaged number of subsistence days of control mouse

[3] = 25 mg/kg oral, day 0 to third day
[4] = 50 mg/kg oral, day 0 to third day
[5] = 100 mg/kg oral, day 0 to third day
[6] = 200 mg/kg oral, day 0 to third day

## O=C1c2c(O)cc(O)cc2O[C@H](c2ccc(O)cc2)[C@H]1c1c(O)cc(O)c2c1O[C@H](c1ccc(O)c(O)c1)[C@@H](O)C2=O [GK-3, 2S,3R,2′S,3′R-2′-(3,4-dihydroxyphenyl)-5,7,3′,5′,7′-pentahydroxy-2-(4-hydroxyphenyl)-2,3,2′,3′-tetrahydro-[3,8′]bichromenyl-4,4′-dione]
Human cancer cell KB3-1; Homo sapiens, KB 3-1
  IC50: > 100 µg/mL
Human cancer cell KB3-1
  Selective toxicity: >830
[1]
  IC50: 0.12 µg/mL (≈ 0.209 µM)

## O=C1c2c(O)cc(O)c([C@@H]3C(=O)c4c(O)cc(O)cc4O[C@H]3c3ccc(O)cc3)c2O[C@H](c2ccc(O)cc2)[C@H]1O [GK-4, 2R,3S,2′S,3′R-5,7,3′,5′,7′-pentahydroxy-2,2′-bis-(4-hydroxyphenyl)-2,3,2′,3′-tetrahydro-[3,8′]bichromenyl-4,4′-dione]
Human cancer cell KB3-1; Homo sapiens, KB 3-1
  IC50: > 100 µg/mL
Human cancer cell KB3-1
  Selective toxicity: >91
[1]
  IC50: 1.1 µg/mL (≈ 1.97 µM)

## C=C[C@H]1C[N@@]2CC[C@H]1C[C@H]2[C@H](O)c1ccnc2ccc(OC)cc12 [quinine, reference compound]
[1]; Table 1 control, 33 ng/mL, read-out: P. falciparum Growth Inhibition (%)
  inhibition at 0.033 µg/mL: 73%
[1]; Table 1 control, 100 ng/mL, read-out: P. falciparum Growth Inhibition (%)
  inhibition at 0.1 µg/mL: 90%
[1]; Table 2 control, 0.033 μg/mL, read-out: Inhibition of P. falciparum %
  inhibition at 0.033 µg/mL: 62%
[1]; Table 2 control, 0.1 μg/mL, read-out: Inhibition of P. falciparum %
  inhibition at 0.1 µg/mL: 90%
[1]; Table 3 control, 0.033 μg/mL, read-out: P. falciparum inhibition
  inhibition at 0.033 µg/mL: 36%
[1]; Table 3 control, 0.1 μg/mL, read-out: P. falciparum inhibition
  inhibition at 0.1 µg/mL: 82%

## O=C1C[C@@H](c2ccc(O)cc2)Oc2c1c(O)cc(O)c2[C@H]1C(=O)c2c(O)cc(O)cc2O[C@@H]1c1ccc(O)cc1 [GK-1, 2S,3R,2′S-5,7,5′,7′-tetrahydroxy-2,2′-bis-(4-hydroxyphenyl)-2,3,2′,3′-tetrahydoro-[3,8′]bichromenyl-4,4′-dione]
Human cancer cell KB3-1; Homo sapiens, KB 3-1
  IC50: 27 µg/mL (≈ 49.8 µM)
Human cancer cell KB3-1
  Selective toxicity: 77
[1]
  IC50: 0.35 µg/mL (≈ 0.645 µM)

## O=C1c2c(O)cc(O)cc2O[C@H](c2ccc(O)cc2)[C@H]1c1c(O)cc(O)c2c1O[C@H](c1ccc(O)cc1)[C@@H](O)C2=O [GK-2, 2S,3R,2′S,3′R-5,7,3′,5′,7′-pentahydroxy-2,2′-bis-(4-hydroxyphenyl)-2,3,2′,3′-tetrahydro-[3,8′]bichromenyl-4,4′-dione]
Human cancer cell KB3-1; Homo sapiens, KB 3-1, Table 2, 5 μg/mL
  inhibition at 5 µg/mL: 22%
Human cancer cell KB3-1; Homo sapiens, KB 3-1, Table 2, 50 μg/mL
  inhibition at 50 µg/mL: 10%
Human cancer cell KB3-1; Homo sapiens, KB 3-1
  IC50: > 100 µg/mL
Human cancer cell KB3-1
  Selective toxicity: >1100
[2]; [3]
  Averaged subsistence days: 9.5 ± 1.7 days
  T/C (life prolonging effect): 119
  Inhibition (%): 40%
  Averaged parasite blood (%): 17.3 ± 3.4%
[2]; [4]
  Averaged subsistence days: 10.0 ± 0.0 days
  T/C (life prolonging effect): 125
  Inhibition (%): 43%
  Averaged parasite blood (%): 16.6 ± 2.4%
[2]; [5]
  Averaged subsistence days: 10.0 ± 0.0 days
  T/C (life prolonging effect): 125
  Inhibition (%): 52%
  Averaged parasite blood (%): 13.9 ± 2.4%
[2]; [6]
  Averaged subsistence days: 11.0 ± 0.7 days
  T/C (life prolonging effect): 134
  Inhibition (%): 60%
  Averaged parasite blood (%): 11.5 ± 1.2%
[1]; Table 2, 0.5 μg/mL, read-out: Inhibition of P. falciparum %
  inhibition at 0.5 µg/mL: 70%
[1]; Table 2, 5 μg/mL, read-out: Inhibition of P. falciparum %
  inhibition at 5 µg/mL: 65%
[1]
  IC50: 0.09 µg/mL (≈ 0.161 µM)

## C[C@@H]1CC[C@H]2[C@@H](C)C(=O)O[C@@H]3O[C@@]4(C)CC[C@@H]1[C@]32OO4 [artemisinin, reference compound]
[2]; 15 mg/kg
  Averaged subsistence days: 10.3 ± 2.3 days
  T/C (life prolonging effect): 129
  Inhibition (%): 54%
  Averaged parasite blood (%): 13.3 ± 1.6%
